Measurements as given in patent publication US11931343B2 (ARCUS BIOSCIENCES, INC., priority 2018, dated 2024).

molecular target: T1, human CD73 (Homo sapiens, UniProt P21589); experiment: Inhibition of Ecto-5′-nucleotidase (CD73) activity in CHO-CD73 cells, phosphate release from AMP; assay type: cell-based; conditions: CHO-K1 cells stably transfected with human CD73; 25 μM AMP; 50 minutes, 37° C.; read-out: Potency: CD73 IC50
T1 sequence (P21589 27-549): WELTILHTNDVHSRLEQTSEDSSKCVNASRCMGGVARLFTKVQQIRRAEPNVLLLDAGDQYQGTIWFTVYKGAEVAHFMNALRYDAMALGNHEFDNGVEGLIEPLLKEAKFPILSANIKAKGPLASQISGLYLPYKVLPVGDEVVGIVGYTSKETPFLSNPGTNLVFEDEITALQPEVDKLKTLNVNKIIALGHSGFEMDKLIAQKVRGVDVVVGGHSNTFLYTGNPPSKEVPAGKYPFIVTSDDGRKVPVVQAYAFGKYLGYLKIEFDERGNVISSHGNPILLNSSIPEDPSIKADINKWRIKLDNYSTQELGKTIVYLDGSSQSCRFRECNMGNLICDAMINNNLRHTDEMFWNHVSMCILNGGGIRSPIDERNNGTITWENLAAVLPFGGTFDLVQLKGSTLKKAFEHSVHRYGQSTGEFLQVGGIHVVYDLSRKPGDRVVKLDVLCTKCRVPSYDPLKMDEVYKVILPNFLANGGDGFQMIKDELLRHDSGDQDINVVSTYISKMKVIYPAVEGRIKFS

**Q.** For `Cc1nn(-c2ccc3cn[nH]c3c2)c2cc(-c3ccnn3Cc3ccc(Cl)cc3)cnc12` [Example 386], which IC50 is on record?
**A.** 100 to 1000 nM

**Q.** For `CC(c1ccc(Cl)c[n+]1[O-])n1c(-c2cc3c(cc2F)nnn3-c2ccc3cn[nH]c3c2)cc[n+]1[O-]` (stereo not drawn) [Example 387], which IC50 is on record?
**A.** 100 to 1000 nM

**Q.** For `Cc1ccc(F)c(-n2nccc2-c2cc(F)c3nnn(-c4ccc5cn[nH]c5c4)c3c2)c1` [Example 388], which IC50 is on record?
**A.** > 1000 nM

**Q.** `N#Cc1ccc(Cn2nccc2-c2cc(F)c3c(N)nn(-c4ccc5cn[nH]c5c4)c3c2)cc1` [Example 389] was tested. Which IC50 did it give?
**A.** 100 to 1000 nM

**Q.** Which IC50 does the source give for `Cc1ccc(C(C)n2nccc2-c2cc(Cl)c3nnn(-c4ccc5cn[nH]c5c4)c3c2)[n+]([O-])c1` (stereo not drawn) [Example 390] here?
**A.** 100 to 1000 nM

**Q.** For `N#Cc1ccc(Cn2nccc2-c2cc3c(c[n+]2[O-])nnn3-c2ccc3[nH]c(=O)[nH]c3c2)cc1` [Example 391], which IC50 is on record?
**A.** > 1000 nM

**Q.** How did the IC50 turn out when `Cc1ccc(Cn2nccc2-c2cc3c(cc2F)nnn3-c2ccc3cn[nH]c3c2)nc1` [Example 392] was run?
**A.** < 100 nM

**Q.** How did the IC50 turn out when `Cc1cccc(-n2nccc2-c2cc3c(cc2F)nnn3-c2ccc3cn[nH]c3c2)c1` [Example 393] was run?
**A.** 100 to 1000 nM

**Q.** With `Fc1cc(-c2ccnn2-c2ccc3[nH]ncc3c2)cc2c1nnn2-c1ccc2cn[nH]c2c1` [Example 394] as the compound, how does the IC50 read?
**A.** > 1000 nM

**Q.** With `Cc1ccc(C(C)n2nccc2-c2cc(F)c3nnn(-c4ccc5cn[nH]c5c4)c3c2)nc1` (stereo not drawn) [Example 396] as the compound, how does the IC50 read?
**A.** 100 to 1000 nM

**Q.** `Cc1ccc(Cn2nccc2-c2cc3c(cc2F)nnn3-c2ccc3cn[nH]c3c2)[n+]([O-])c1` [Example 397] was tested. Which IC50 did it give?
**A.** 100 to 1000 nM

**Q.** How did the IC50 turn out when `Cc1cc2nnn(-c3ccc4cn[nH]c4c3)c2cc1-c1ccnn1C(C)c1ccc(C#N)cc1` (stereo not drawn) [Example 398] was run?
**A.** > 1000 nM

**Q.** Which IC50 does the source give for `Cc1cc2nnn(-c3ccc4cn[nH]c4c3)c2cc1-c1ccnn1C(C)c1ccc(Cl)cn1` (stereo not drawn) [Example 399] here?
**A.** > 1000 nM

**Q.** For `N#Cc1ccc(Cn2nccc2-c2cc3c(cc2Cl)nnn3-c2ccc3cn[nH]c3c2)c(F)c1` [Example 400], which IC50 is on record?
**A.** < 100 nM

**Q.** With `CC(c1ccc(C#N)cc1)n1nccc1-c1cc2c(cc1Cl)nnn2-c1ccc2cn[nH]c2c1` (stereo not drawn) [Example 401] as the compound, how does the IC50 read?
**A.** 100 to 1000 nM

**Q.** With `CC(c1ccc(Cl)cn1)n1nccc1-c1cc2c(cc1Cl)nnn2-c1ccc2cn[nH]c2c1` (stereo not drawn) [Example 402] as the compound, how does the IC50 read?
**A.** 100 to 1000 nM

**Q.** Which IC50 does the source give for `N#Cc1cccc(-n2nccc2-c2cc3c(cc2Cl)nnn3-c2ccc3cn[nH]c3c2)c1` [Example 403] here?
**A.** > 1000 nM

**Q.** For `Clc1cccc(-n2nccc2-c2cc3c(cc2Cl)nnn3-c2ccc3cn[nH]c3c2)c1` [Example 404], which IC50 is on record?
**A.** 100 to 1000 nM

**Q.** With `Cc1nn(-c2ccc3cn[nH]c3c2)c2cc(-c3ccnn3Cc3ccc(C#N)cc3)ncc12` [Example 405] as the compound, how does the IC50 read?
**A.** 100 to 1000 nM

**Q.** For `Cc1cccc(-n2nccc2-c2cc3c(cc2C)nnn3-c2ccc3cn[nH]c3c2)c1` [Example 406], which IC50 is on record?
**A.** > 1000 nM

**Q.** For `Cc1cccc(-n2nccc2-c2cnc3c(C)nn(-c4ccc5cn[nH]c5c4)c3c2)c1` [Example 408], which IC50 is on record?
**A.** 100 to 1000 nM

**Q.** `Cc1ccc(F)c(-n2nccc2-c2cc3c(cn2)nnn3-c2ccc3cn[nH]c3c2)c1` [Example 409] was tested. Which IC50 did it give?
**A.** > 1000 nM

**Q.** For `N#Cc1ccc(Cn2nccc2-c2cc(F)c3nnn(-c4ccc5cn[nH]c5c4F)c3c2)cc1` [Example 410], which IC50 is on record?
**A.** 100 to 1000 nM

**Q.** How did the IC50 turn out when `Cc1cccc(-n2nccc2-c2cc3c(cc2Cl)nnn3-c2ccc3cn[nH]c3c2)c1` [Example 411] was run?
**A.** 100 to 1000 nM

**Q.** How did the IC50 turn out when `CC(c1ccc(C#N)cc1F)n1nccc1-c1cc2c(cc1F)nnn2-c1ccc2cn[nH]c2c1` (stereo not drawn) [Example 412] was run?
**A.** 100 to 1000 nM

**Q.** `Cc1cccc(-n2ncc(Cl)c2-c2cc(F)c3nnn(-c4ccc5cn[nH]c5c4)c3c2)c1` [Example 413] was tested. Which IC50 did it give?
**A.** 100 to 1000 nM

**Q.** Which IC50 does the source give for `Cc1cccc(-n2ncc(C)c2-c2cc(F)c3nnn(-c4ccc5cn[nH]c5c4)c3c2)c1` [Example 416] here?
**A.** > 1000 nM

**Q.** For `C=CCNc1nn(-c2ccc3cn[nH]c3c2)c2cc(-c3ccnn3Cc3ccc(C#N)cc3)cnc12` [Example 417], which IC50 is on record?
**A.** > 1000 nM

**Q.** How did the IC50 turn out when `CC(c1ccc(C#N)cc1F)n1nccc1-c1cc(Cl)c2nnn(-c3ccc4[nH]c(=O)[nH]c4c3)c2c1` (stereo not drawn) [Example 418] was run?
**A.** 100 to 1000 nM

**Q.** Which IC50 does the source give for `N#Cc1ccc(C(CO)n2nccc2-c2cc(F)c3nnn(-c4ccc5cn[nH]c5c4)c3c2)cc1` (stereo not drawn) [Example 419] here?
**A.** 100 to 1000 nM

**Q.** For `N#Cc1ccc(Cn2nccc2-c2cnc3c(NCCO)nn(-c4ccc5cn[nH]c5c4)c3c2)cc1` [Example 420], which IC50 is on record?
**A.** > 1000 nM

**Q.** For `N#Cc1ccc(Cn2nccc2-c2cc3c(cc2CO)nnn3-c2ccc3cn[nH]c3c2)cc1` [Example 421], which IC50 is on record?
**A.** 100 to 1000 nM

**Q.** How did the IC50 turn out when `N#Cc1ccc(Cn2nccc2-c2cnc3c(NCC(O)CO)nn(-c4ccc5cn[nH]c5c4)c3c2)cc1` (stereo not drawn) [Example 422] was run?
**A.** > 1000 nM

**Q.** `CNc1nn(-c2ccc3cn[nH]c3c2)c2cc(-c3ccnn3Cc3ccc(C#N)cc3)cnc12` [Example 423] was tested. Which IC50 did it give?
**A.** > 1000 nM

**Q.** With `CN(C)S(=O)(=O)Nc1nn(-c2ccc3cn[nH]c3c2)c2cc(-c3ccnn3Cc3ccc(C#N)cc3)cnc12` [Example 424] as the compound, how does the IC50 read?
**A.** > 1000 nM

**Q.** For `CCNc1nn(-c2ccc3cn[nH]c3c2)c2cc(-c3ccnn3Cc3ccc(C#N)cc3)cnc12` [Example 425], which IC50 is on record?
**A.** > 1000 nM
